# Laboratory results reported in US8252909B2, “Synthetic C-glycolipid and its use for treating cancer, infectious diseases, and autoimmune diseases” (New York University, priority 2002, dated 2012).
# Where “and” joins values, the source holds several entries; their conditions need not be identical. Identical values can stand only once.
# Legend:
# [1] = system: B16 melanoma cells; test: melanoma lung metastases, count of metastatic nodules; type: in vivo, C57/BL6 mice; conditions: for dose of equal anti-cancer response (lung metastatic nodules): C57BL/6 mice, intravenously two days before challenge with 5×10^4 B16 cells, lungs checked two weeks later
# Experimental: The development of melanoma lung metastases in C57/BL6 mice was determined by first challenging mice intravenously with 5×10^4 syngeneic B16 melanoma cells suspended in DMEM supplemented with 10% FCS. Two weeks after challenge the mice were sacrificed, the lungs removed, and the number of metastatic nodules counted, as described in Fujii et al., Natl. Immunol. 3, 867-874 (2002).
# [2] = system: IL-4; test: serum IL-4 after treatment, sandwich ELISA; type: in vivo; conditions: wild type BALB/c mice, 1 μg intravenously
# Experimental: (§1) The serum concentrations of IFN-γ and IL-4 were measured 2, 6, 12, 24, 48, and 72 hours after treatment with α-GalCer, α-C-GalCer, or nothing by way of a sandwich ELISA (e-bioscience, San Diego). The serum concentrations of IL-12p70 were also measured at 2, 6, 12, 24, 48 and 72 hours after treatment by way of a sandwich ELISA (Pharmingen, San Diego).
# [3] = system: IFN-γ; test: serum IFN-γ after treatment, sandwich ELISA; type: in vivo; conditions: wild type BALB/c mice, 1 μg intravenously
# Experimental: as §1
# [4] = system: P. yoelii sporozoites; test: malaria liver stage development in mice challenged with P. yoelii sporozoites, real-time RT-PCR of 18S rRNA in liver; type: in vivo; conditions: for suppression of P. yoelii liver stages in deficient mice: mice deficient in CD1d, Jα18, IFN-γ or IFN-γ receptor; for suppression of P. yoelii liver stages in deficient mice / malaria liver stage development: 2 μg intraperitoneally two days before challenge; for malaria liver stage development: compared to untreated control; for dose of equal anti-malaria activity (dose response): intraperitoneally three days before challenge
# Experimental: (§2) P. yoelii (17NXL strain) was maintained by alternate cyclic passages in Anopheles stephensi mosquitoes and Swiss Webster mice. Sporozoites obtained from dissected salivary glands of infected mosquitoes 2 weeks after their infective blood were used for challenge of the mice. Challenge of mice to determine the development of liver-stage malaria infection was performed by an intravenous injection of 10,000 viable sporozoites into the tail vein. The outcome of the challenge was determined 40-42 hours later by measuring the parasite burden in the livers of the mice using a quantitative real-time RT-PCR method, as taught in Bruna-Romero et al., Int. J. Parasitol. 31, 1449-1502, 2001. Challenge of mice toe determine the development of blood stage malaria infection was performed by an intravenous injection of 75 viable sporozoites into the tail vein. Starting four days after challenge, daily peripheral blood smears were obtained from each mouse and examined microscopically for the presence of blood stage parasites until day 17 post-challenge. Mice were considered positive for parasitemia if at least one blood stage parasite was observed during the time of examination.
# The degree of liver stage development in challenged mice was determined by quantifying the amount of P. yoelii-specific 18S rRNA molecules in the livers of the mice by way of the real-time RT-PCR technique of Bruna-Romero et al. A 2 μg sample of total RNA prepared from the livers of challenged mice was reverse-transcribed, and an aliquot of the resulting cDNA (133 ng) was used for real-time PCR amplification of P. yoelii 18S rRNA sequences. This amplification was performed in a GeneAmp® 5700 Sequence Detection System (PE Applied Biosystems, Foster City, Calif.). For this purpose, primers 5′-[…]-3′ (SEQ. ID NO: 1) (54 nM) and 5′-[…]-3′ (SEQ. ID NO: 2) (60 nm) were used, together with the dsDNA-specific dye SYBR Green I incorporated into the PCR reaction buffer (PE Biosystems, Foster City, Calif.) in order to detect the PCR product generated. The temperature profile of the reaction was 95° C. for 10 minutes followed by 35 cycles of denaturation of 95° C. for 15 seconds and annealing/extension at 60° C. for 1 minute.
# [5] = system: IL-12p70; test: serum IL-12 after treatment, sandwich ELISA; type: in vivo; conditions: wild type BALB/c mice, 1 μg intravenously
# Experimental: as §1
# [6] = system: P. yoelii sporozoites; test: sporozoite-induced blood stage malaria infection, daily blood smears; type: in vivo; conditions: wild type BALB/c mice, 100 ng intraperitoneally three days before challenge
# Experimental: as §2
# [7] = independently of dosage (Nakagawa et al., 1998); cited from earlier work
# [8] = recent human trials (Shimosaka et al.); cited from earlier work
# [9] = system: liver enzyme activities; conditions: mice, immediately after treatment (Osman et al., 2000); cited from earlier work
# [10] = system: P. yoelii sporozoites; conditions: mice, administered two days before challenge with Plasmodium sporozoites (Gonzalez-Aseguinolaza 2000); cited from earlier work
# [11] = 100 ng intraperitoneally four days before challenge
smiles,measurement,setting,value
"CCCCCCCCCCCCCCCCCCCCCCCCCC(=O)N[C@@H](CC[C@H]1O[C@H](CO)[C@H](O)[C@H](O)[C@H]1O)[C@H](O)[C@H](O)CCCCCCCCCCCCCC [α-C-GalCer, 3′S,4′S,5′R-3′-N-hexacosanoyl-4′,5′-dihydroxynonadecyl-α-C-D-galactopyranoside]",dose of equal anti-cancer response (lung metastatic nodules),[1],1 ng
same,potency against melanoma metastases relative to α-GalCer,"[1]; melanoma metastases model, mice",100 fold
same,time of peak serum IL-4 concentration after treatment,[2],2 h
same,time at which detectable serum IFN-γ levels start,[3],6 h
same,anti-malaria activity in IL-12 deficient mice,[4]; [11],no difference in anti-malaria activity
same,potency against malaria relative to α-GalCer,"[4]; malaria disease model, mice",1000 fold
same,suppression of P. yoelii liver stages in deficient mice,[4],unable to suppress
same,extension of anti-malaria effect (kinetic effect),"[4]; wild type BALB/c mice, 100 ng intraperitoneally at various times before challenge",up to three days longer than α-GalCer
same,malaria liver stage development,[4]; wild type BALB/c mice,virtually no liver stage development
same,dose of equal anti-malaria activity (dose response),[4]; wild type BALB/c mice,1 ng
same,"suppression of liver stage development, wild type mice","[4]; wild type mice, 100 ng intraperitoneally four days before challenge",suppressed liver stage development to a much greater degree than α-GalCer
same,time of peak serum IL-12 concentration after treatment,[5],6 h
same,peak serum IL-12 concentration relative to α-GalCer,[5]; 6 hours,2 times
same,serum IL-12 levels 12 hours after treatment,[5],detectable
same,mice completely protected from blood stage malaria,[6],9 of 10
"CCCCCCCCCCCCCCCCCCCCCCCCCC(=O)N[C@@H](CO[C@H]1O[C@H](CO)[C@H](O)[C@H](O)[C@H]1O)[C@H](O)[C@H](O)CCCCCCCCCCCCCC [α-GalCer, (2S,3S,4R)-1-O-(α-D-galactopyranosyl)-2-(N-hexacosanoylamino)-1,3,4-octadecanetriol]",dose of equal anti-cancer response (lung metastatic nodules),[1],100 ng
same,toxicity in rodents and monkeys,[7],does not induce toxicity
same,time of peak serum IL-4 concentration after treatment,[2],2 h
same,peak serum IL-4 concentration relative to α-C-GalCer,[2]; 2 hours,roughly 3 times
same,cytotoxicity in humans,[8],not cytotoxic
same,time at which detectable serum IFN-γ levels start,[3],6 h
same,time of peak serum IFN-γ post-treatment,[3],12 h and 24 h
same,anti-malaria activity in IL-12 deficient mice,[4]; [11],no difference in anti-malaria activity
same,suppression of P. yoelii liver stages in deficient mice,[4],unable to suppress
same,malaria liver stage development,[4]; wild type BALB/c mice,virtually no liver stage development
same,dose of equal anti-malaria activity (dose response),[4]; wild type BALB/c mice,1000 ng
same,liver enzyme activities after treatment,[9],transient elevation of liver enzyme activities
same,time of peak serum IL-12 concentration after treatment,[5],6 h
same,serum IL-12 levels 12 hours after treatment,[5],undetectable
same,development of malaria liver stages,[10],suppressed development of malaria liver stages
same,mice completely protected from blood stage malaria,[6],0 of 10
